# Results reported in ChEMBL document CHEMBL2057077, “Exploration of pipecolate sulfonamides as binders of the FK506-binding proteins 51 and 52” (J Med Chem, 2012).
# Target: T1, Peptidyl-prolyl cis-trans isomerase FKBP4 (Homo sapiens, UniProt Q02790)
# T1 sequence (Q02790 whole entry): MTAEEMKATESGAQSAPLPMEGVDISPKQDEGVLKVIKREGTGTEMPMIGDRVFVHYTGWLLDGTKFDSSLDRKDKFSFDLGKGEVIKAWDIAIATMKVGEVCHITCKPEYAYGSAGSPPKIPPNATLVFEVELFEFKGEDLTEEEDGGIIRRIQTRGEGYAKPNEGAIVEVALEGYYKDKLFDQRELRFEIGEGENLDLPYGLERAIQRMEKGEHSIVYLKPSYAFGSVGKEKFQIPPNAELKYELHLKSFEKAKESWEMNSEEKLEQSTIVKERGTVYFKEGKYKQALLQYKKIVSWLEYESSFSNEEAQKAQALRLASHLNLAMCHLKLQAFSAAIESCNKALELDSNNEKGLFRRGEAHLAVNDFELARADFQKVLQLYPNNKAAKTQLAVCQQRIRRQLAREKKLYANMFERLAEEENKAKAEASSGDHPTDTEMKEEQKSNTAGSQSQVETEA
# Assay: Binding affinity to FKBP52 FK1 domain by competitive fluorescence polarization assay
# Conditions: read-out: IC50
row,Structure (SMILES),IC50
1,COc1ccc(CC[C@@H](NC(=O)[C@@H]2CCCCN2S(=O)(=O)c2cc(Cl)c(O)c(Cl)c2)c2cccc(OCC(=O)O)c2)cc1OC,> 100 µM
2,COc1ccc(CC[C@@H](OC(=O)[C@@H]2CCCCN2S(=O)(=O)c2ccc3ncsc3c2)c2cccc(OCC(=O)O)c2)cc1OC,32.5 µM
3,COc1ccc(CC[C@@H](OC(=O)[C@@H]2CCCCN2S(=O)(=O)c2cccc(-c3ccnc(C)n3)c2)c2cccc(OCC(=O)O)c2)cc1OC,> 100 µM
4,COc1ccc(CC[C@@H](OC(=O)[C@@H]2CCCCN2S(=O)(=O)c2cc(Cl)c(OC)c(Cl)c2)c2cccc(OCCN3CCOCC3)c2)cc1OC,> 50 µM
5,COc1ccc(CC[C@@H](OC(=O)[C@@H]2CCCCN2S(=O)(=O)c2cc(Cl)cc(Cl)c2)c2cccc(OCCN3CCOCC3)c2)cc1OC,> 50 µM
6,COc1ccc(CC[C@@H](OC(=O)[C@@H]2CCCCN2S(=O)(=O)c2cccc(-c3ccncn3)c2)c2cccc(OCC(=O)O)c2)cc1OC,> 100 µM
7,COc1ccc(CC[C@@H](OC(=O)[C@@H]2CCCCN2S(=O)(=O)c2cc(Cl)c(NC(C)=O)c(Cl)c2)c2cccc(OCC(=O)O)c2)cc1OC,20.5 µM
8,COc1ccc(CC[C@@H](OC(=O)[C@@H]2CCCCN2S(=O)(=O)c2cc(Cl)c(O)c(Cl)c2)c2cccc(OCC(=O)O)c2)cc1OC,20.3 µM
9,COc1ccc(CC[C@@H](OC(=O)[C@@H]2CCCCN2S(=O)(=O)c2cccc(F)c2)c2cccc(OCC(=O)O)c2)cc1OC,84.5 µM
10,COc1ccc(CC[C@@H](OC(=O)[C@@H]2CCCCN2S(=O)(=O)c2ccc3[nH]c(=O)sc3c2)c2cccc(OCCN3CCOCC3)c2)cc1OC,3.41 µM
11,COc1ccc(CC[C@@H](OC(=O)[C@@H]2CCCCN2S(=O)(=O)c2cccc(Br)c2)c2cccc(OCC(=O)O)c2)cc1OC,15.7 µM
12,COc1ccc(CC[C@@H](OC(=O)[C@@H]2CCCCN2S(=O)(=O)c2ccc(Cl)c(Cl)c2)c2cccc(OCC(=O)O)c2)cc1OC,> 100 µM

# Target: Peptidyl-prolyl cis-trans isomerase FKBP1A (Homo sapiens, UniProt P62942)
# Assay: Binding affinity to FKBP12 by competitive fluorescence polarization assay
# Conditions: read-out: IC50
# Peptidyl-prolyl cis-trans isomerase FKBP1A, sequence (P62942 whole entry): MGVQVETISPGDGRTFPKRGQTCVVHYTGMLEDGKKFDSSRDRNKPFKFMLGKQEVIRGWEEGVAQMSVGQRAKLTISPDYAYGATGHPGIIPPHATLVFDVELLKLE
row,Structure (SMILES),IC50
1,COc1ccc(CC[C@@H](OC(=O)[C@@H]2CCCCN2S(=O)(=O)c2cc3c(c([N+](=O)[O-])c2)OCC3)c2cccc(OCC(=O)O)c2)cc1OC,1.5 µM
2,COc1ccc(CC[C@@H](OC(=O)[C@@H]2CCCCN2S(=O)(=O)c2cccc(Cl)c2)c2cccc(OCC(=O)O)c2)cc1OC,1.2 µM
3,COc1ccc(CC[C@@H](OC(=O)[C@@H]2CCCCN2S(=O)(=O)c2cc(Cl)c(OC)c(Cl)c2)c2cccc(OCC(=O)O)c2)cc1OC,0.23 µM
4,COc1ccc(CC[C@@H](OC(=O)[C@@H]2CCCCN2S(=O)(=O)c2cc(Cl)c(O)c(Cl)c2)c2cccc(OCCN3CCOCC3)c2)cc1OC,0.115 µM
5,COc1ccc(CC[C@@H](OC(=O)[C@@H]2CCCCN2S(=O)(=O)c2cc(Cl)c(NC(C)=O)c(Cl)c2)c2cccc(OCCN3CCOCC3)c2)cc1OC,0.45 µM
6,COc1ccc(CC[C@@H](OC(=O)[C@@H]2CCCCN2S(=O)(=O)c2ccc3nc(C)sc3c2)c2cccc(OCC(=O)O)c2)cc1OC,1.2 µM
7,COc1ccc(CC[C@@H](OC(=O)[C@@H]2CCCCN2S(=O)(=O)c2ccc3[nH]c(=O)sc3c2)c2cccc(OCC(=O)O)c2)cc1OC,0.021 µM
8,COc1ccc(CC[C@@H](NC(=O)[C@@H]2CCCCN2S(=O)(=O)c2cc(Cl)c(O)c(Cl)c2)c2cccc(OCC(=O)O)c2)cc1OC,> 100 µM
9,COc1ccc(CC[C@@H](OC(=O)[C@@H]2CCCCN2S(=O)(=O)c2ccc3ncsc3c2)c2cccc(OCC(=O)O)c2)cc1OC,1.1 µM
10,COc1ccc(CC[C@@H](OC(=O)[C@@H]2CCCCN2S(=O)(=O)c2cccc(-c3ccnc(C)n3)c2)c2cccc(OCC(=O)O)c2)cc1OC,8.1 µM
11,COc1ccc(CC[C@@H](OC(=O)[C@@H]2CCCCN2S(=O)(=O)c2cc(F)cc(F)c2)c2cccc(OCC(=O)O)c2)cc1OC,1 µM
12,COc1ccc(CC[C@@H](OC(=O)[C@@H]2CCCCN2S(=O)(=O)c2cc(Cl)c(OC)c(Cl)c2)c2cccc(OCCN3CCOCC3)c2)cc1OC,> 50 µM
13,COc1ccc(CC[C@@H](OC(=O)[C@@H]2CCCCN2S(=O)(=O)c2cc(Cl)cc(Cl)c2)c2cccc(OCCN3CCOCC3)c2)cc1OC,> 50 µM
14,COc1ccc(CC[C@@H](OC(=O)[C@@H]2CCCCN2S(=O)(=O)c2cccc(-c3ccncn3)c2)c2cccc(OCC(=O)O)c2)cc1OC,9.1 µM
15,COc1ccc(CC[C@@H](OC(=O)[C@@H]2CCCCN2S(=O)(=O)c2cc(Cl)c(NC(C)=O)c(Cl)c2)c2cccc(OCC(=O)O)c2)cc1OC,1.18 µM
16,COc1ccc(CC[C@@H](OC(=O)[C@@H]2CCCCN2S(=O)(=O)c2cc(Cl)c(O)c(Cl)c2)c2cccc(OCC(=O)O)c2)cc1OC,0.67 µM
17,COc1ccc(CC[C@@H](OC(=O)[C@@H]2CCCCN2S(=O)(=O)c2cccc(F)c2)c2cccc(OCC(=O)O)c2)cc1OC,1.09 µM
18,COc1ccc(CC[C@@H](OC(=O)[C@@H]2CCCCN2S(=O)(=O)c2ccc3[nH]c(=O)sc3c2)c2cccc(OCCN3CCOCC3)c2)cc1OC,0.003 µM
19,COc1ccc(CC[C@@H](OC(=O)[C@@H]2CCCCN2S(=O)(=O)c2cc(Cl)cc(Cl)c2)c2cccc(OCC(=O)O)c2)cc1OC,0.8 µM
20,COc1ccc(CC[C@@H](OC(=O)[C@@H]2CCCCN2S(=O)(=O)c2cccc(Br)c2)c2cccc(OCC(=O)O)c2)cc1OC,0.32 µM
21,COc1ccc(CC[C@@H](OC(=O)[C@@H]2CCCCN2S(=O)(=O)c2ccc(Cl)c(Cl)c2)c2cccc(OCC(=O)O)c2)cc1OC,6.1 µM

# Target: T2, Peptidyl-prolyl cis-trans isomerase FKBP5 (Homo sapiens, UniProt Q13451)
# T2 sequence (Q13451 whole entry): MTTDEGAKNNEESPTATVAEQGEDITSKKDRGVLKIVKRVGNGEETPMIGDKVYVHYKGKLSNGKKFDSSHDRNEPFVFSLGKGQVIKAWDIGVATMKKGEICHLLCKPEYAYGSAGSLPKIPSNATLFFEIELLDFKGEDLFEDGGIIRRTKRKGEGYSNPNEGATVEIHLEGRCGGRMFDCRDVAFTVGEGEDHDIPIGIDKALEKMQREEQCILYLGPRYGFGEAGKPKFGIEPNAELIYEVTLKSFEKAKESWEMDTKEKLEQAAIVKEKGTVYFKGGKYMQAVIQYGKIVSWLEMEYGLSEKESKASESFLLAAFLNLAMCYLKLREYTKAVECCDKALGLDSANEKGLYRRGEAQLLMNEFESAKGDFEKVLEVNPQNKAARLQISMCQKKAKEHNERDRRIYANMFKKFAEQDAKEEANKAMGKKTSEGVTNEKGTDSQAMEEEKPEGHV
# Assay: Binding affinity to FKBP51 FK1 domain by competitive fluorescence polarization assay
# Conditions: read-out: IC50
row,Structure (SMILES),IC50
1,COc1ccc(CC[C@@H](NC(=O)[C@@H]2CCCCN2S(=O)(=O)c2cc(Cl)c(O)c(Cl)c2)c2cccc(OCC(=O)O)c2)cc1OC,> 100 µM
2,COc1ccc(CC[C@@H](OC(=O)[C@@H]2CCCCN2S(=O)(=O)c2ccc3ncsc3c2)c2cccc(OCC(=O)O)c2)cc1OC,11.6 µM
3,COc1ccc(CC[C@@H](OC(=O)[C@@H]2CCCCN2S(=O)(=O)c2cccc(-c3ccnc(C)n3)c2)c2cccc(OCC(=O)O)c2)cc1OC,> 100 µM
4,COc1ccc(CC[C@@H](OC(=O)[C@@H]2CCCCN2S(=O)(=O)c2cc(F)cc(F)c2)c2cccc(OCC(=O)O)c2)cc1OC,88.2 µM
5,COc1ccc(CC[C@@H](OC(=O)[C@@H]2CCCCN2S(=O)(=O)c2cc(Cl)c(OC)c(Cl)c2)c2cccc(OCCN3CCOCC3)c2)cc1OC,> 50 µM
6,COc1ccc(CC[C@@H](OC(=O)[C@@H]2CCCCN2S(=O)(=O)c2cc(Cl)cc(Cl)c2)c2cccc(OCCN3CCOCC3)c2)cc1OC,> 50 µM
7,COc1ccc(CC[C@@H](OC(=O)[C@@H]2CCCCN2S(=O)(=O)c2cccc(-c3ccncn3)c2)c2cccc(OCC(=O)O)c2)cc1OC,> 100 µM
8,COc1ccc(CC[C@@H](OC(=O)[C@@H]2CCCCN2S(=O)(=O)c2cc(Cl)c(NC(C)=O)c(Cl)c2)c2cccc(OCC(=O)O)c2)cc1OC,16.1 µM
9,COc1ccc(CC[C@@H](OC(=O)[C@@H]2CCCCN2S(=O)(=O)c2cc(Cl)c(O)c(Cl)c2)c2cccc(OCC(=O)O)c2)cc1OC,6.2 µM
10,COc1ccc(CC[C@@H](OC(=O)[C@@H]2CCCCN2S(=O)(=O)c2cccc(F)c2)c2cccc(OCC(=O)O)c2)cc1OC,54 µM
11,COc1ccc(CC[C@@H](OC(=O)[C@@H]2CCCCN2S(=O)(=O)c2ccc3[nH]c(=O)sc3c2)c2cccc(OCCN3CCOCC3)c2)cc1OC,2.03 µM
12,COc1ccc(CC[C@@H](OC(=O)[C@@H]2CCCCN2S(=O)(=O)c2cccc(Br)c2)c2cccc(OCC(=O)O)c2)cc1OC,15.8 µM
13,COc1ccc(CC[C@@H](OC(=O)[C@@H]2CCCCN2S(=O)(=O)c2ccc(Cl)c(Cl)c2)c2cccc(OCC(=O)O)c2)cc1OC,> 100 µM
